We go through seven substances from patent publication US20230242587A1, “THYCLOTIDES” (The United States of America,as represented by the …, priority 2020, published 2023).

In one data set the test system is complementary DNA. As to the kind of experiment: Melting temperature of PNA-DNA complexes (thermal denaturation). The conditions noted are these: for Tm: PNA bound to complementary DNA; for ΔTm: increase over aegPNA 1a-DNA duplex. It counts as binding. An excerpt: Although the stabilizing effect of tetrahydrofuran for PNA-DNA duplex is slightly lower than that of cyclopentane (3d vs 9 and 2a, Table 2), it strikes a balance between water solubility and binding properties and, therefore the combination of those two backbone modifications could be tailor-made to meet the specific requirements.

The test system of data set [1] is DNA with a single base mismatch. As to the kind of experiment: Discrimination of single base mismatches (Tm of mismatched PNA-DNA duplex). The data set is classed as binding. The settings on record: for ΔTm (Tm), TC mismatch: number before the brackets / ΔTm (Tm), TG mismatch: number before the brackets / ΔTm (Tm), TT mismatch: number before the brackets: PNA-DNA duplex with single base mismatch; for ΔTm (Tm), TC mismatch: number in brackets / ΔTm (Tm), TG mismatch: number in brackets / ΔTm (Tm), TT mismatch: number in brackets: against fully matched duplex. An excerpt: The sequence specificity of thyclotide 3d was examined by determining the change in Tm of a PNA-DNA duplex when a single base mismatch is present. […] The large differences in melting temperature between matched PNA-DNA duplex and mismatch PNA-DNA of thyclotide 3d allows one to control hybridization conditions to exclude the formation of mismatched PNA-DNA by adjust the temperature. Such enhanced single base pair mismatch-discrimination capability could make thyclotide 3d become a powerful tool for the detection of point-mutations and single nucleotide polymorphisms (SNPs).

Data set [2] can be described thus: CD spectra, conformation of PNA. The data set is classed as physicochemical. How it is done:
The CD spectra of thyclotides 3a-3d were measured. […] However, in the case of thyclotides 3a-3d, distinct distinctive positive peaks around 220 and 269 nm and negative peaks around 204 and 247 nm were noticed. […] The amplitude of the cotton effects increases as more tetrahydrofuran modifications are introduced.

On to G*A*T*G*T*G*A*T*A*-AEEA [3d], for which, in the data set on complementary DNA, the Tm turned out to be 77 °C and the ΔTm was 35 °C. In data set [1], the “ΔTm (Tm), TC mismatch: number before the brackets” value was 50.7; the “ΔTm (Tm), TC mismatch: number in brackets” value was −26.2; the “ΔTm (Tm), TG mismatch: number before the brackets” value was determined as 55.6; the “ΔTm (Tm), TG mismatch: number in brackets” value is −21.4. For the same substance, in data set [1], the “ΔTm (Tm), TT mismatch: number before the brackets” value was 58.2 and the “ΔTm (Tm), TT mismatch: number in brackets” value is reported as −18.8. In addition, the “difference in melting temperature between fully matched duplex and duplex with a single base mismatch (ΔTm), in words” value in data set [1] (compared with aegPNA, tcypPNA 2a and mixPNA 9) is on record as “significantly higher than that of the corresponding aegPNA”.
Take GAT*GT*GAT*A-AEEA [3c]: in the data set with complementary DNA, the Tm amounted to 54.9 °C and the ΔTm came out at 12.9 °C.
With “G#A#T#G#T#G#A#T#A#-AEEA [2a, reference compound]”, in the data set with complementary DNA, the Tm was found to be 93.7 °C and the ΔTm is 51.7 °C. In data set [1], the “ΔTm (Tm), TC mismatch: number in brackets” value is −30.6; the “ΔTm (Tm), TG mismatch: number in brackets” value was −20.6; the “ΔTm (Tm), TT mismatch: number in brackets” value was −22.8.
Regarding GATGTGATA-AEEA [1a, reference compound], the midpoint of thermal melting (Tm) in the data set with complementary DNA came to 42.0 °C. Besides, in data set [1], the “ΔTm (Tm), TC mismatch: number before the brackets” value amounted to 22.9; the “ΔTm (Tm), TC mismatch: number in brackets” value is reported as −19.2; the “ΔTm (Tm), TG mismatch: number before the brackets” value is recorded as 25.4; the “ΔTm (Tm), TG mismatch: number in brackets” value is listed as −16.6. Besides, in data set [1], the “ΔTm (Tm), TT mismatch: number before the brackets” value is recorded as 28.2 and the “ΔTm (Tm), TT mismatch: number in brackets” value is −13.8. Also, the “CD spectrum / conformation” value in data set [2] is on record as “does not show any distinct peaks”.
Regarding G*A*T*G#T#G#A*T*A*-AEEA [compound 9], in the data set with complementary DNA, the Tm worked out at 84.5 °C and the ΔTm is 42.5 °C. In addition, in data set [1], the “ΔTm (Tm), TC mismatch: number before the brackets” value was determined as 57.7; the “ΔTm (Tm), TC mismatch: number in brackets” value is −27.4; the “ΔTm (Tm), TG mismatch: number in brackets” value was −20.3; the “ΔTm (Tm), TT mismatch: number in brackets” value was −19.5.
For GAT*GTGAT*A-AEEA [3b], in the data set on complementary DNA, the Tm is 49.7 °C and the ΔTm turned out to be 7.7 °C.
Regarding GATGT*GATA-AEEA [3a], in the data set with complementary DNA, the Tm is 44.7 °C and the ΔTm is 2.7 °C.

For orientation: Tm means the temperature at which the thermal transition is half complete. What is called ΔTm is the change in melting temperature against a reference sample.
